# Structures can show the parent of a compound that is named as a salt.
# Columns and labels:
# [1] = tested on: chronic opioid user; conditions: intravenously; subjects receiving opioids chronically; cited from earlier work
# [2] = opioid agonist / antagonist character of the MNTX stereoisomers (stated, no method given); conditions: statement in words, no assay described
SMILES,dose required to induce immediate laxation [1],opioid activity (agonist or antagonist) [2]
"C[N+]1(CC2CC2)CC[C@]23c4c5ccc(O)c4O[C@H]2C(=O)CC[C@@]3(O)[C@H]1C5 (stereo partly drawn) [MNTX, Methylnaltrexone]",about 0.15 mg/kg,–
C[N@@+]1(CC2CC2)CC[C@]23c4c5ccc(O)c4OC2C(=O)CCC3(O)C1C5 (stereo partly drawn) [S-MNTX],–,opioid agonist
"C[N+]1(CC2CC2)CC[C@]23c4c5ccc(O)c4O[C@H]2C(=O)CC[C@@]3(O)[C@H]1C5 (stereo partly drawn) [R-MNTX, morphinanium, 17R, 17-(cyclopropylmethyl)-4,5-epoxy-3,14-dihydroxy-17-methyl-6-oxo-, salt, (5α)-(9Cl)]",–,opioid antagonist

# Source: patent US9597327B2, “Synthesis of (R)-N-methylnaltrexone” (Progenics Pharmaceuticals, Inc., priority 2005, dated 2017)
